According to PubChem BioAssay AID1963851 (Molecular Pharmacology Branch, DTP, NCI, 2024):

System: 188146-221-R-J1-PDC complex spheroid viability
Experiment: Anticancer human tumor 188146-221-R-J1-PDC patient-derived colon adenocarcinoma cell line growth inhibition [POLQ]
Details: for IC50: curve of first compound; for viability, T/C: stronger effect = lower value; active = viability on the fitted dose curve at most 10% of control; inactive = the rest
Method in brief: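 Growth inhibition in 3D: complex spheroids (tumor PDC, HUVEC, MSC) treated with POLQ inhibitor combinations; where Cmax unknown, highest tested concentration 10 microM, except SN-38 at 1 microM.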

[1] = second compound 0.0316 µM, first compound 0.0316 µM
[2] = second compound 0.0316 µM, first compound 0.1 µM
[3] = second compound 0.0316 µM, first compound 0.316 µM
[4] = second compound 0.0316 µM, first compound 1 µM
[5] = second compound 0.0316 µM, first compound 3.16 µM
[6] = second compound 0.0316 µM, first compound 10 µM
[7] = second compound 0.1 µM, first compound 0.0316 µM
[8] = second compound 0.1 µM, first compound 0.1 µM
[9] = second compound 0.1 µM, first compound 0.316 µM
[10] = second compound 0.1 µM, first compound 1 µM
[11] = second compound 0.1 µM, first compound 3.16 µM
[12] = second compound 0.1 µM, first compound 10 µM
[13] = second compound 0.316 µM, first compound 0.0316 µM
[14] = second compound 0.316 µM, first compound 0.1 µM
[15] = second compound 0.316 µM, first compound 0.316 µM
[16] = second compound 0.316 µM, first compound 1 µM
[17] = second compound 0.316 µM, first compound 3.16 µM
[18] = second compound 0.316 µM, first compound 10 µM
[19] = second compound 1 µM, first compound 0.0316 µM
[20] = second compound 1 µM, first compound 0.1 µM
[21] = second compound 1 µM, first compound 0.316 µM
[22] = second compound 1 µM, first compound 1 µM
[23] = second compound 1 µM, first compound 3.16 µM
[24] = second compound 1 µM, first compound 10 µM
[25] = second compound 3.16 µM, first compound 0.0316 µM
[26] = second compound 3.16 µM, first compound 0.1 µM
[27] = second compound 3.16 µM, first compound 0.316 µM
[28] = second compound 3.16 µM, first compound 1 µM
[29] = second compound 3.16 µM, first compound 3.16 µM
[30] = second compound 3.16 µM, first compound 10 µM
[31] = second compound 10 µM, first compound 0.0316 µM
[32] = second compound 10 µM, first compound 0.1 µM
[33] = second compound 10 µM, first compound 0.316 µM
[34] = second compound 10 µM, first compound 1 µM
[35] = second compound 10 µM, first compound 3.16 µM
[36] = second compound 10 µM, first compound 10 µM
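Note: spheroids exposed to compounds for seven days.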
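Throughout, for viability, T/C: 100% = DMSO vehicle control viability.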

CC1COCCN1c1cc(C2(O)CC3CCC(C2)O3)c2cnn(-c3ccn[nH]3)c2n1 (stereo unspecified) + Cc1cccc(N(C)C(=O)C2C(O)CCN2c2nc(C)cc(C(F)(F)F)c2C#N)c1
0.259 µM: IC50 (second compound 3.16 µM)
active: viability, T/C [6] 7.58% | viability, T/C [12] 7.79% | viability, T/C [24] 7.67%
0.19 µM: IC50 (second compound 10 µM)
0.322 µM: IC50 (second compound 0.1 µM)
0.365 µM: IC50 (second compound 0.316 µM)
0.426 µM: IC50 (second compound 1 µM)
inactive: viability, T/C [1] 83.2% | viability, T/C [2] 67.8% | viability, T/C [3] 61.5% | viability, T/C [4] 27.6% | viability, T/C [5] 19.2% | viability, T/C [7] 95.3% | viability, T/C [8] 75.7% | viability, T/C [9] 51.1% | viability, T/C [10] 26.6% | viability, T/C [11] 16.8% | viability, T/C [13] 91.9% | viability, T/C [14] 80.2% | viability, T/C [15] 52.4% | viability, T/C [16] 27.4% | viability, T/C [17] 17.4% | viability, T/C [18] 9.2% | viability, T/C [19] 89.2% | viability, T/C [20] 71.9% | viability, T/C [21] 56.1% | viability, T/C [22] 36% | viability, T/C [23] 19.2% | viability, T/C [25] 94.8% | viability, T/C [26] 68.4% | viability, T/C [27] 46.4% | viability, T/C [28] 27.3% | viability, T/C [29] 22.8% | viability, T/C [30] 8.6% | viability, T/C [31] 80.7% | viability, T/C [32] 60.3% | viability, T/C [33] 43.4% | viability, T/C [34] 24% | viability, T/C [35] 23.9% | viability, T/C [36] 9.35%
0.422 µM: IC50 (second compound 0.0316 µM)

CCc1cc2c(N3CCc4c(cc(Cn5ccnc5)cc4-c4cn(C)nc4C(F)(F)F)C3=O)cc(C)nc2c(OC)n1 + Cc1cccc(N(C)C(=O)C2C(O)CCN2c2nc(C)cc(C(F)(F)F)c2C#N)c1
7.64 µM: IC50 (second compound 0.0316 µM)
5.43 µM: IC50 (second compound 10 µM)
6.71 µM: IC50 (second compound 0.1 µM)
6.58 µM: IC50 (second compound 3.16 µM)
inactive: viability, T/C [1] 105% | viability, T/C [2] 90.4% | viability, T/C [3] 87% | viability, T/C [4] 84.9% | viability, T/C [5] 65.7% | viability, T/C [6] 44.5% | viability, T/C [7] 95.9% | viability, T/C [8] 90.9% | viability, T/C [9] 96% | viability, T/C [10] 86.4% | viability, T/C [11] 68.4% | viability, T/C [12] 40.3% | viability, T/C [13] 112% | viability, T/C [14] 94% | viability, T/C [15] 106% | viability, T/C [16] 98.2% | viability, T/C [17] 67% | viability, T/C [18] 41.9% | viability, T/C [19] 93.8% | viability, T/C [20] 87.3% | viability, T/C [21] 107% | viability, T/C [22] 88.5% | viability, T/C [23] 72.9% | viability, T/C [24] 43.1% | viability, T/C [25] 101% | viability, T/C [26] 100% | viability, T/C [27] 94.4% | viability, T/C [28] 81.9% | viability, T/C [29] 65.3% | viability, T/C [30] 41.4% | viability, T/C [31] 97.2% | viability, T/C [32] 95.7% | viability, T/C [33] 96.7% | viability, T/C [34] 71.1% | viability, T/C [35] 64.9% | viability, T/C [36] 36.6%
7.65 µM: IC50 (second compound 1 µM)
6.91 µM: IC50 (second compound 0.316 µM)

O=c1[nH]cc(F)c(=O)[nH]1 + COC1C(OC(N)=O)C(O)C(Oc2ccc3c(O)c(NC(=O)c4ccc(O)c(CC=C(C)C)c4)c(=O)oc3c2C)OC1(C)C
1.24 µM: IC50 (second compound 0.1 µM)
0.925 µM: IC50 (second compound 0.316 µM)
inactive: viability, T/C [1] 107% | viability, T/C [2] 106% | viability, T/C [3] 72.7% | viability, T/C [4] 53.1% | viability, T/C [5] 39.8% | viability, T/C [6] 34.9% | viability, T/C [7] 95.2% | viability, T/C [8] 102% | viability, T/C [9] 75.4% | viability, T/C [10] 53.7% | viability, T/C [11] 41.4% | viability, T/C [12] 35% | viability, T/C [13] 95.8% | viability, T/C [14] 98.5% | viability, T/C [15] 75.4% | viability, T/C [16] 49.3% | viability, T/C [17] 37.6% | viability, T/C [18] 36.6% | viability, T/C [19] 111% | viability, T/C [20] 101% | viability, T/C [21] 72.4% | viability, T/C [22] 49.6% | viability, T/C [23] 43.8% | viability, T/C [24] 36% | viability, T/C [25] 102% | viability, T/C [26] 92.3% | viability, T/C [27] 76% | viability, T/C [28] 52.1% | viability, T/C [29] 49% | viability, T/C [30] 41.3% | viability, T/C [31] 97% | viability, T/C [32] 90.2% | viability, T/C [33] 80.7% | viability, T/C [34] 53.3% | viability, T/C [35] 43.2% | viability, T/C [36] 40.6%
0.984 µM: IC50 (second compound 1 µM)
1.79 µM: IC50 (second compound 3.16 µM)
1.01 µM: IC50 (second compound 0.0316 µM)
1.5 µM: IC50 (second compound 10 µM)
